Assay results reported in ChEMBL document CHEMBL2429742, “Design, synthesis, and biological evaluation of novel 3-pyrrolo[b]cyclohexylene-2-dihydroindolinone derivatives as potent receptor tyrosine kinase inhibitors” (Bioorg Med Chem Lett, 2013).

Legend:
[1] = target: Vascular endothelial growth factor receptor 2 (Homo sapiens, UniProt P35968)
[2] = target: Platelet-derived growth factor receptor beta (Homo sapiens, UniProt P09619)
[3] = target: Mast/stem cell growth factor receptor Kit (Homo sapiens, UniProt P10721)
[4] = tested on: HT-29; assay: cells; settings: Homo sapiens, HT-29, 72 h
[5] = tested on: T-24; assay: Antiproliferative activity against human T24 cells after 72 hrs by MTT assay; format: functional, cell-based; settings: T-24, 72 h
[6] = tested on: BXPC-3; assay: cells; settings: Homo sapiens, BXPC-3, 72 h
[7] = Oral bioavailability in cynomolgus monkey; format: ADME, organism-based, Macaca fascicularis; settings: in vivo
[8] = tested on: HepG2; assay: Antiproliferative activity against human HepG2 cells after 72 hrs by MTT assay; format: functional, cell-based; settings: HepG2, 72 h
[9] = target: Vascular endothelial growth factor receptor 3 (Homo sapiens, UniProt P35916); assay: Inhibition of VEGFR3 (unknown origin)
[10] = cells; settings: Homo sapiens, BGC, 72 h
[11] = target: Vascular endothelial growth factor receptor 1 (Homo sapiens, UniProt P17948); assay: Inhibition of VEGFR1 (unknown origin)
[12] = tested on: BXPC-3; assay: Ratio of sunitinib IC50 to compound IC50 for human BxPC3 cells; format: functional

Platelet-derived growth factor receptor beta, sequence (P09619 whole entry): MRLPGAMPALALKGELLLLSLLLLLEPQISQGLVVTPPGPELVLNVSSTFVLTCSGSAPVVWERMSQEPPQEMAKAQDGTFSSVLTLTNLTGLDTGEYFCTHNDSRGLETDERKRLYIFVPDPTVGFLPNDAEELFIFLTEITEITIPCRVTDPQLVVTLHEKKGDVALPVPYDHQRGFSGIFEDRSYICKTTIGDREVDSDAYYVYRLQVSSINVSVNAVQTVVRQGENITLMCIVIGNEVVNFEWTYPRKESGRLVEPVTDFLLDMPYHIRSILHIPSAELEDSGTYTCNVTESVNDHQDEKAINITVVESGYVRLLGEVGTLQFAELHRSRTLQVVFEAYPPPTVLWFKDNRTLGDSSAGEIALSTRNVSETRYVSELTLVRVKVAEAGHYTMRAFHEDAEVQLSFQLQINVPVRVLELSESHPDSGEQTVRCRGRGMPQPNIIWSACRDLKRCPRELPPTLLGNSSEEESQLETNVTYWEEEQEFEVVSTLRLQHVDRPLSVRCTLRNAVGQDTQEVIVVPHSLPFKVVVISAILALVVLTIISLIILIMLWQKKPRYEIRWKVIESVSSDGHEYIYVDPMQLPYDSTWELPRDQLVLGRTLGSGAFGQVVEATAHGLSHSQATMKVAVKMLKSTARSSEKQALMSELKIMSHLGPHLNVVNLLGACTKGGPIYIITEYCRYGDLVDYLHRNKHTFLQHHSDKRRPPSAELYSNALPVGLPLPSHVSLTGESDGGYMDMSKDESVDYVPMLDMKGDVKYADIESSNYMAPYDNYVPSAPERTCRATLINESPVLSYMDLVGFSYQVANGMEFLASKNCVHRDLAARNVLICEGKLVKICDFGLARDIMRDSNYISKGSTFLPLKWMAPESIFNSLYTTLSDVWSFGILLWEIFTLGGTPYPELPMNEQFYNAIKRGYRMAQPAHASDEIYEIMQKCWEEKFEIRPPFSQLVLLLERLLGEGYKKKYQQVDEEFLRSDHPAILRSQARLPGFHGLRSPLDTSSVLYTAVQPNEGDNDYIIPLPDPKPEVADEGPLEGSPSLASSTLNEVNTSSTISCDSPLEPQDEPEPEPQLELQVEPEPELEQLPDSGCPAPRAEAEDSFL
Vascular endothelial growth factor receptor 2, sequence (P35968 whole entry): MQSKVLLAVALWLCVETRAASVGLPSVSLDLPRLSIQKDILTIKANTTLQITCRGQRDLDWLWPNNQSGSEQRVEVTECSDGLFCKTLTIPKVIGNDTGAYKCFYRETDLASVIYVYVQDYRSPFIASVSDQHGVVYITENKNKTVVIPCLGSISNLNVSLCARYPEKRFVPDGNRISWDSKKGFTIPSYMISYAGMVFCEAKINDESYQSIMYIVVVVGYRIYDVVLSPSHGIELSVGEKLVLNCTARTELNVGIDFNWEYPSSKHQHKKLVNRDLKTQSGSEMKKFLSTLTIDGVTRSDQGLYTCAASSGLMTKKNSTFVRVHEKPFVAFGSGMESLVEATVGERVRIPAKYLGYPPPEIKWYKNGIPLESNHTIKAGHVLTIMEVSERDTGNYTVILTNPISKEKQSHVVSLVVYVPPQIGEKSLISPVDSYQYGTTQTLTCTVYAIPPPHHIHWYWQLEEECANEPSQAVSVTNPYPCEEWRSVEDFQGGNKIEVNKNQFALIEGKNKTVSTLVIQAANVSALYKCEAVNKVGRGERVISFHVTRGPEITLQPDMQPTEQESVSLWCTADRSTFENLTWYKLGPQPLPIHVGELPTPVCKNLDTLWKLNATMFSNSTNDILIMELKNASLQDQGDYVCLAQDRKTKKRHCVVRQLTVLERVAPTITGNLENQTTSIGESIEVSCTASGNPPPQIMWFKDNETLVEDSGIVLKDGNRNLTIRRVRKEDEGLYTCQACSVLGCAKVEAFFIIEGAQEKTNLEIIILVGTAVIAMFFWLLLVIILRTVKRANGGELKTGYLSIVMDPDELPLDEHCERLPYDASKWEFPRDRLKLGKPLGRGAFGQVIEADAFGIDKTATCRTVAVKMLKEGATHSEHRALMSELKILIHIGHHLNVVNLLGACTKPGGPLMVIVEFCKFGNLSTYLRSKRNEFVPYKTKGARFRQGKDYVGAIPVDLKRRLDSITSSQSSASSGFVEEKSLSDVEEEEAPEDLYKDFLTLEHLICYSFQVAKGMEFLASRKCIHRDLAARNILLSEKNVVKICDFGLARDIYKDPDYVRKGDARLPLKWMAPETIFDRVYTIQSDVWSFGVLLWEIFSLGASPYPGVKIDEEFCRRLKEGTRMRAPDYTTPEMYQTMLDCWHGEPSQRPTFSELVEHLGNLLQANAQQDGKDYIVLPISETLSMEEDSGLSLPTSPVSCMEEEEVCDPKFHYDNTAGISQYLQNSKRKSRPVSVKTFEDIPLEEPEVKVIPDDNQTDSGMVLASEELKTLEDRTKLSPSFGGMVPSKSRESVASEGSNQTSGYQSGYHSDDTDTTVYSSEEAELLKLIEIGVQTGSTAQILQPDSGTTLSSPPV
Mast/stem cell growth factor receptor Kit, sequence (P10721 whole entry): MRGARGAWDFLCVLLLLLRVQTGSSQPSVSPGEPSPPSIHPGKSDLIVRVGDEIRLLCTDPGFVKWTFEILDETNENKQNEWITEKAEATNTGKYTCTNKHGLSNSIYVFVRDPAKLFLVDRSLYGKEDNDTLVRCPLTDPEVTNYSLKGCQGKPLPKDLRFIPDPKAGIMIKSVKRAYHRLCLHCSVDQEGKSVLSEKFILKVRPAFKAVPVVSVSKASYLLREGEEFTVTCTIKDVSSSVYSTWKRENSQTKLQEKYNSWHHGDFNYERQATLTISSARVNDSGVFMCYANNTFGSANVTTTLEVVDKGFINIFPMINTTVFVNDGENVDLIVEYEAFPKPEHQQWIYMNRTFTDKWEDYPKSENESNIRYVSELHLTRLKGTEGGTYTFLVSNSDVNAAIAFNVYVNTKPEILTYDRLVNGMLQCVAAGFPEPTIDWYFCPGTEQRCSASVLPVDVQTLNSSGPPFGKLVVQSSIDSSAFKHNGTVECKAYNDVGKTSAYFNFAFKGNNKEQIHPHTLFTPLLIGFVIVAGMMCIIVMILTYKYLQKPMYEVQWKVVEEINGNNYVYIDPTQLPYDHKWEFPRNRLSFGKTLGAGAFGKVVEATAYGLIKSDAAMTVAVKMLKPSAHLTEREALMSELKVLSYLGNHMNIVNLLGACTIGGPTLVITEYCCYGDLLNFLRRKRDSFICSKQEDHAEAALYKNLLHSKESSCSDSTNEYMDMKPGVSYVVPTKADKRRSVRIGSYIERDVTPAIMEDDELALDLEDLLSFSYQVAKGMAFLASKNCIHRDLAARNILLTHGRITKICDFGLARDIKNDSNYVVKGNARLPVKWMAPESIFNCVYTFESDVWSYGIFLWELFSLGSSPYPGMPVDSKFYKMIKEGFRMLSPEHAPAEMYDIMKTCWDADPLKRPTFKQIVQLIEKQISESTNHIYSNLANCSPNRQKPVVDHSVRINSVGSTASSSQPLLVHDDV
Vascular endothelial growth factor receptor 1, sequence (P17948 whole entry): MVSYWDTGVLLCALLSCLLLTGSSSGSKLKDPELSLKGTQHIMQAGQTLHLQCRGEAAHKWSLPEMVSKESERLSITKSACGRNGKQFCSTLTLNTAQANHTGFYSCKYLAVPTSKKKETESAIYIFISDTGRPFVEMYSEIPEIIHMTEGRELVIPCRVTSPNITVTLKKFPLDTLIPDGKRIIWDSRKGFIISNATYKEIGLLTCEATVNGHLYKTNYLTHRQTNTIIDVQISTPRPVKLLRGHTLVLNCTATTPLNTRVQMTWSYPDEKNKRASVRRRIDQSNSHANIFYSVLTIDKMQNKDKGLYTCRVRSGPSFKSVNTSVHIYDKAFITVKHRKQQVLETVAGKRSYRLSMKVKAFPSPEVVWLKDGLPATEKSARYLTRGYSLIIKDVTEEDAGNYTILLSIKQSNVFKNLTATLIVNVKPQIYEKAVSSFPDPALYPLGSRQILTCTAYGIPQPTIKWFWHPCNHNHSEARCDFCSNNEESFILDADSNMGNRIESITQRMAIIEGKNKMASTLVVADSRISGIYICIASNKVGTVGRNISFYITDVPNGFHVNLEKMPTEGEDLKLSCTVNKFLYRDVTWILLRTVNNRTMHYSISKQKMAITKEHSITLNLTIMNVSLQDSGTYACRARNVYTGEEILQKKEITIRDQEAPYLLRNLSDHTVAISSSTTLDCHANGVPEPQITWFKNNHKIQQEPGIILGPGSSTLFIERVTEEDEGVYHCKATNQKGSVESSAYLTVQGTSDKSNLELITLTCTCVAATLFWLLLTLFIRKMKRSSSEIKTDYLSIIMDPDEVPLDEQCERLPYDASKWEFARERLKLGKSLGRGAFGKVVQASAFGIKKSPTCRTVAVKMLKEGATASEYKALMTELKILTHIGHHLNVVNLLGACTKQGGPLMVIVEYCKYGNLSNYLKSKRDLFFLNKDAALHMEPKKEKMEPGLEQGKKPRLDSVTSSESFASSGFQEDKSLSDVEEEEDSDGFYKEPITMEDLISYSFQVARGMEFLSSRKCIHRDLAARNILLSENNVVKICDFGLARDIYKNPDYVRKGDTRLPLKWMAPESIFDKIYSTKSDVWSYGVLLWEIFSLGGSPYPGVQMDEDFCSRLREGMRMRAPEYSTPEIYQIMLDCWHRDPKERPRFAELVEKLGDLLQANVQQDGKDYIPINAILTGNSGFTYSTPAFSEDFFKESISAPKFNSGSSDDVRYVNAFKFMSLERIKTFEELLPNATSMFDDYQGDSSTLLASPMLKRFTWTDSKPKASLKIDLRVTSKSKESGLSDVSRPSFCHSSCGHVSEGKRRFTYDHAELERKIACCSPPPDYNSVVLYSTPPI

SMILES	IC50 [1]	IC50 [2]	IC50 [3]	further results
CCN(CC)CCNC(=O)c1c(C)[nH]c2c1CCC/C2=C1/C(=O)Nc2c(F)cccc21	0.112 µM	0.26 µM	0.181 µM	
Cc1[nH]c2c(c1C(=O)NCCc1ccccn1)CCC/C2=C1/C(=O)Nc2ccc(F)cc21	0.0114 µM	0.161 µM	0.0377 µM	
CCN(CC)CCNC(=O)c1c(C)[nH]c2c1CCC/C2=C1/C(=O)Nc2cccc(F)c21	0.015 µM	0.0621 µM	0.0431 µM	
CCN(CC)CCNC(=O)c1c(C)[nH]c2c1CCC/C2=C1/C(=O)Nc2ccc(Br)cc21	0.0039 µM	0.0076 µM	0.0023 µM	
CCN(CC)CCNC(=O)c1c(C)[nH]c2c1CCC/C2=C1/C(=O)Nc2ccc(F)cc21 [TAFETINIB]				IC50 [4]: 1.2 µM; IC50 [5]: 3.31 µM; IC50 [6]: 0.52 µM; bioavailability [7]: 90%; IC50 [8]: 7.27 µM; IC50 [9]: 0.0013 µM; IC50 [10]: 6.11 µM; IC50 [11]: 0.0013 µM
CCN(CC)CCNC(=O)c1c(C)[nH]c2c1CCC/C2=C1/C(=O)Nc2ccccc21	0.0094 µM	0.0899 µM		IC50 [4]: 0.54 µM; IC50 [5]: 3.56 µM; IC50 [6]: 0.52 µM; IC50 [8]: 7.73 µM; Ratio IC50 [12]: 7; IC50 [10]: 6.73 µM
Cc1[nH]c2c(c1C(=O)NCCCN1CCCC1)CCC/C2=C1/C(=O)Nc2ccc(F)cc21	0.0038 µM	0.0648 µM	0.0107 µM	
CCN(CC)CCNC(=O)c1c(C)[nH]c(/C=C2\C(=O)Nc3ccc(F)cc32)c1C [SUNITINIB]				IC50 [4]: 1.47 µM; IC50 [5]: 2.44 µM; IC50 [6]: 3.63 µM; IC50 [8]: 5.61 µM; IC50 [10]: 4.78 µM
CCN(CC)CCNC(=O)c1c(C)[nH]c2c1CCC/C2=C1/C(=O)Nc2ccc(C)cc21	0.0023 µM	0.0156 µM	0.0041 µM	
Cc1[nH]c2c(c1C(=O)NCCN1CCCC1)CCC/C2=C1/C(=O)Nc2ccc(F)cc21	0.0097 µM	0.0416 µM	0.0074 µM	
Cc1[nH]c2c(c1C(=O)NCCN1CCCCC1)CCC/C2=C1/C(=O)Nc2ccc(F)cc21	0.0043 µM	0.0194 µM	0.0058 µM	
CCN(CC)CCNC(=O)c1c(C)[nH]c2c1CCC/C2=C1/C(=O)Nc2ccc(S(=O)(=O)N(CC)CC)cc21	0.33 µM	0.396 µM	0.398 µM	
CCN(CC)CCNC(=O)c1c(C)[nH]c2c1CCC/C2=C1/C(=O)Nc2ccc(Cl)cc21	0.0026 µM	0.0121 µM	0.0027 µM	IC50 [4]: 6.48 µM; IC50 [5]: 1.83 µM; IC50 [6]: 1.95 µM; IC50 [8]: 3.14 µM; IC50 [10]: 2.03 µM
CCN(CC)CC(O)CNC(=O)c1c(C)[nH]c2c1CCC/C2=C1/C(=O)Nc2ccc(F)cc21 (configuration not stated)	0.0025 µM	0.0193 µM	0.0041 µM	
CCN(CC)CCNC(=O)c1c(C)[nH]c2c1CCC/C2=C1/C(=O)Nc2ccc(OC)cc21	0.0246 µM	0.101 µM	0.0355 µM	
CCN(CC)CCCNC(=O)c1c(C)[nH]c2c1CCC/C2=C1/C(=O)Nc2ccc(F)cc21	0.0027 µM	0.0213 µM	0.0099 µM	

Second part, led by results:

IC50 [1]	IC50 [2]	IC50 [3]	SMILES	further results
0.0257 µM	0.0133 µM	0.0069 µM	CCN(CC)CCNC(=O)c1c(C)[nH]c2c1CCC/C2=C1/C(=O)Nc2ccc([N+](=O)[O-])cc21	
0.001 µM	0.018 µM	0.0057 µM	Cc1[nH]c2c(c1C(=O)NCCCN1CCOCC1)CCC/C2=C1/C(=O)Nc2ccc(F)cc21	
0.003 µM	0.0227 µM	0.0066 µM	Cc1[nH]c2c(c1C(=O)NCCN(C)C)CCC/C2=C1/C(=O)Nc2ccc(F)cc21	
0.0011 µM	0.0401 µM	0.0021 µM	Cc1[nH]c2c(c1C(=O)N1CCOCC1)CCC/C2=C1/C(=O)Nc2ccc(F)cc21	
0.0011 µM	0.0127 µM	0.0014 µM	Cc1[nH]c2c(c1C(=O)NCCO)CCC/C2=C1/C(=O)Nc2ccc(F)cc21	
0.0118 µM	0.118 µM	0.0085 µM	Cc1[nH]c2c(c1C(=O)N1CCC[C@H]1CN1CCCC1)CCC/C2=C1/C(=O)Nc2ccc(F)cc21	
0.008 µM	0.0407 µM	0.0078 µM	Cc1[nH]c2c(c1C(=O)N1CCC(N3CCCCC3)CC1)CCC/C2=C1/C(=O)Nc2ccc(F)cc21	
0.167 µM	0.0703 µM	0.256 µM	CCN(CC)CCNC(=O)c1c(C)[nH]c2c1CCC/C2=C1/C(=O)Nc2ccc(C(=O)OC)cc21	
0.0016 µM	0.0132 µM	0.002 µM	Cc1[nH]c2c(c1C(=O)NCCN1CCOCC1)CCC/C2=C1/C(=O)Nc2ccc(F)cc21	
